Measurements reported in patent publication EP4748373A1, “PHARMACEUTICAL COMPOSITION CONTAINING HETEROCYCLIC COMPOUND” (Sagimet Biosciences Inc., priority 2023, dated 2025).
Converted amounts (≈) assume the structure as drawn.

Test: equilibrium solubility experiments in buffer media at different pH conditions
Type: physicochemical
Settings: for solubility at 1 h / solubility at 22 h: buffer media, thermodynamic from solid
Excerpt: Additionally, the present invention conducted equilibrium solubility experiments of the monohydrate crystalline API, amorphous API, and hot-melt extrudate dispersion intermediate in buffer media at different pH conditions. Table 3. Summary of equilibrium solubility (µg/ml) of monohydrate crystalline API, amorphous API, and hot-melt extrudate dispersion intermediate

[1] = pH 1.2, simulated gastric fluid, pH 1.2 buffer
[2] = pH 2, simulated gastric fluid, pH 2.0 buffer
[3] = pH 4, aqueous buffer, pH 4.0 buffer
[4] = pH 4.5, aqueous buffer, pH 4.5 buffer
[5] = pH 5, aqueous buffer, pH 5.0 buffer
[6] = pH 6, aqueous buffer, pH 6.0 buffer
[7] = pH 6.8, aqueous buffer, pH 6.8 buffer
[8] = pH 7.5, aqueous buffer, pH 7.5 buffer

Cc1nnc(-c2cc(C(=O)N3CCC(c4ccc(C#N)cc4)CC3)c(C)cc2C2CCC2)[nH]1 [4-[1-[4-cyclobutyl-2-methyl-5-(5-methyl-1H-1,2,4-triazol-3-yl)benzoyl]piperidin-4-yl]benzonitrile]
solubility at 1 h [1]: 30.3 µg/mL (≈ 68.9 µM)
solubility at 22 h [1]: 27.2 µg/mL (≈ 61.8 µM)
solubility at 1 h [2]: 3.57 µg/mL (≈ 8.12 µM)
solubility at 22 h [2]: 3.22 µg/mL (≈ 7.33 µM)
solubility at 1 h (pH 3, aqueous buffer, pH 3.0 buffer): 1.07 µg/mL (≈ 2.43 µM)
solubility at 1 h [3]: 0.68 µg/mL (≈ 1.55 µM)
solubility at 22 h [3]: 0.6 µg/mL (≈ 1.36 µM)
solubility at 1 h [4]: 0.6 µg/mL (≈ 1.36 µM)
solubility at 22 h [4]: 0.59 µg/mL (≈ 1.34 µM)
solubility at 1 h [5]: 0.47 µg/mL (≈ 1.07 µM)
solubility at 22 h [5]: 0.51 µg/mL (≈ 1.16 µM)
solubility at 1 h [6]: 0.5 µg/mL (≈ 1.14 µM)
solubility at 22 h [6]: 0.45 µg/mL (≈ 1.02 µM)
solubility at 1 h [7]: 0.44 µg/mL (≈ 1 µM)
solubility at 22 h [7]: 0.42 µg/mL (≈ 0.955 µM)
solubility at 1 h [8]: 0.42 µg/mL (≈ 0.955 µM)
solubility at 22 h [8]: 0.43 µg/mL (≈ 0.978 µM)

Cc1nnc(-c2cc(C(=O)N3CCC(c4ccc(C#N)cc4)CC3)c(C)cc2C2CCC2)[nH]1 [Compound of formula (I) (amorphous API), 4-[1-[4-cyclobutyl-2-methyl-5-(5-methyl-1H-1,2,4-triazol-3-yl)benzoyl]piperidin-4-yl]benzonitrile]
1-h solubility (pH 1.2 buffer): 50.93 µg/mL
22-h solubility (pH 1.2 buffer): 48.62 µg/mL
1-h solubility (pH 2.0 buffer): 4.52 µg/mL
22-h solubility (pH 2.0 buffer): 4.45 µg/mL
1-h solubility (pH 3.0 buffer): 2.14 µg/mL
22-h solubility (pH 3.0 buffer): 2.14 µg/mL
1-h solubility (pH 4.0 buffer): 0.76 µg/mL
22-h solubility (pH 4.0 buffer): 0.74 µg/mL
1-h solubility (pH 4.5 buffer): 0.65 µg/mL
22-h solubility (pH 4.5 buffer): 0.57 µg/mL
1-h solubility (pH 5.0 buffer): 0.51 µg/mL
22-h solubility (pH 5.0 buffer): 0.42 µg/mL
1-h solubility (pH 6.0 buffer): 0.46 µg/mL
22-h solubility (pH 6.0 buffer): 0.44 µg/mL
1-h solubility (pH 6.8 buffer): 0.46 µg/mL
22-h solubility (pH 6.8 buffer): 0.45 µg/mL
1-h solubility (pH 7.5 buffer): 0.54 µg/mL
22-h solubility (pH 7.5 buffer): 0.48 µg/mL

Cc1nnc(-c2cc(C(=O)N3CCC(c4ccc(C#N)cc4)CC3)c(C)cc2C2CCC2)[nH]1 [Compound of formula (I) (monohydrate crystalline form)] [4-[1-[4-cyclobutyl-2-methyl-5-(5-methyl-1H-1,2,4-triazol-3-yl)benzoyl]piperidin-4-yl]benzonitrile]
22-h solubility (pH 3.0 buffer): 0.97 µg/mL
